Experimental data: patent publication US10544143B2, “4-azaindole compounds” (BRISTOL-MYERS SQUIBB COMPANY, priority 2017, dated 2020)

How the values were obtained:
human TLR7 = human TLR7 (Homo sapiens (Human), UniProt Q9NYK1); assay: TLR7 inhibition reporter assay (HEK-Blue SEAP); type: cell-based; details: HEK-Blue human TLR7 cells, gardiquimod 7.5 μM
human TLR8 = human TLR8 (Homo sapiens (Human), UniProt Q9NR97); assay: TLR8 inhibition reporter assay (HEK-Blue SEAP); details: read-out: TLR8 IC50; HEK-Blue human TLR8 cells, R848 15.9 μM;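 note: SEAP driven by IFN-β minimal promoter carrying NF-κB and AP-1 sites, compounds dosed 0.05 nM to 50 µM for 22 h, inhibition scaled between agonist-plus-DMSO and reference-inhibitor wells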
human TLR9 = human TLR9 (Homo sapiens (Human), UniProt Q9NR96); assay: TLR9 inhibition reporter assay (HEK-Blue SEAP); details: read-out: TLR9 IC50; HEK-Blue human TLR9 cells, ODN2006 5 nM;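 note: SEAP driven by an IFN-β minimal promoter with NF-κB and AP-1 sites, read after 22 h, compounds dosed 0.05 nM–50 µM, inhibition scaled between agonist plus DMSO and reference-inhibitor wells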
Sequence of human TLR9 (Q9NR96 26-1032): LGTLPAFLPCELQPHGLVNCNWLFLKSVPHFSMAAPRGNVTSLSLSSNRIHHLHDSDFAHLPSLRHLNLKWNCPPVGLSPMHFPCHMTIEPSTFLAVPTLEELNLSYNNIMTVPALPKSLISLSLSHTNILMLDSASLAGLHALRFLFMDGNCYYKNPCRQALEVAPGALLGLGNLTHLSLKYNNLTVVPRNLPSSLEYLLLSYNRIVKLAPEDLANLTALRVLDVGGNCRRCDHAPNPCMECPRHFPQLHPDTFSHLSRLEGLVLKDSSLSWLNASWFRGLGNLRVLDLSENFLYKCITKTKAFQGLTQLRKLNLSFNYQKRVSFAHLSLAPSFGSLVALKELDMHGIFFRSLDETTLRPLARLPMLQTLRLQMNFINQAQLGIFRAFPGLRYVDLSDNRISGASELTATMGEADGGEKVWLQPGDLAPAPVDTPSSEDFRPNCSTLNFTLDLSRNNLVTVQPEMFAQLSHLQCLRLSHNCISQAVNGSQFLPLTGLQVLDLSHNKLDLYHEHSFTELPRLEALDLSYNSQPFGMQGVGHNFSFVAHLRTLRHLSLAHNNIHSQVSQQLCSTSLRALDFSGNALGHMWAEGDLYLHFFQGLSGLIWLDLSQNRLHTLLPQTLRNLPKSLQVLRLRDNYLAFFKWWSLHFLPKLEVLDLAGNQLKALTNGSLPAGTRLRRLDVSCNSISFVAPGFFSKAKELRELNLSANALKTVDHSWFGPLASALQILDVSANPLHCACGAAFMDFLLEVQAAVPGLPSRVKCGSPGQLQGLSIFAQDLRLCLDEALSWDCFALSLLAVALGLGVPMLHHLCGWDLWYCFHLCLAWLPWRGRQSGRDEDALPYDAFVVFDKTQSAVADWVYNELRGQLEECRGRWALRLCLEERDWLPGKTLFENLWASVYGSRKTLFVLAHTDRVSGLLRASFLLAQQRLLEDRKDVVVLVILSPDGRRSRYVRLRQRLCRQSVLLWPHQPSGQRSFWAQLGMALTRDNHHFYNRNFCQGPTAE

Sequence of human TLR7 (Q9NYK1 27-1049): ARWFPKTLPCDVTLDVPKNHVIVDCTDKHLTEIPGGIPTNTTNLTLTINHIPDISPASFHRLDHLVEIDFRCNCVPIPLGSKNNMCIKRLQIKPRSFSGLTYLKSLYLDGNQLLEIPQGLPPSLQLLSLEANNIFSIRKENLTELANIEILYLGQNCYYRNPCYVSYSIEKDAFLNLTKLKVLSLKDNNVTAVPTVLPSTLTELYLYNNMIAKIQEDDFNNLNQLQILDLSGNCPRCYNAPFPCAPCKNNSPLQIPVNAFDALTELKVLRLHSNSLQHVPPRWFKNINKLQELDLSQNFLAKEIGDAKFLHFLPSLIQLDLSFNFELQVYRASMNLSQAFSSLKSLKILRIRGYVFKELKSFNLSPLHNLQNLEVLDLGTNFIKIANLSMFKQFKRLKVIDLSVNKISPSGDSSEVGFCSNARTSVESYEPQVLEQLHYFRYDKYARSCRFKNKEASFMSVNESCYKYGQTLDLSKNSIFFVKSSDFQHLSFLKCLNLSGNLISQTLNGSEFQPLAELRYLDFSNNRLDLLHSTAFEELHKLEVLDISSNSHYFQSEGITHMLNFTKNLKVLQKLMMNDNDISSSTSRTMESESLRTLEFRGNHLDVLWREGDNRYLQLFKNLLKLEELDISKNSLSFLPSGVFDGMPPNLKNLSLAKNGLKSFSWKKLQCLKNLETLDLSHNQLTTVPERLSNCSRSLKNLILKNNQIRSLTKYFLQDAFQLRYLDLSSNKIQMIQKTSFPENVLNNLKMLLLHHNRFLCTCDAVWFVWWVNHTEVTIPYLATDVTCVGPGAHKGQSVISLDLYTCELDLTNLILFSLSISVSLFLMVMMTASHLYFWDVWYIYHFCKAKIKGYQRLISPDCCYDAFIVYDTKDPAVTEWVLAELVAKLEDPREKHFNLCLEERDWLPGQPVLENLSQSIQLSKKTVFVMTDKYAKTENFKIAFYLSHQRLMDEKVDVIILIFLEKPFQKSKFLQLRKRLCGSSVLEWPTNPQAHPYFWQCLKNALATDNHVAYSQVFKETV
Sequence of human TLR8 (Q9NR97 27-1041): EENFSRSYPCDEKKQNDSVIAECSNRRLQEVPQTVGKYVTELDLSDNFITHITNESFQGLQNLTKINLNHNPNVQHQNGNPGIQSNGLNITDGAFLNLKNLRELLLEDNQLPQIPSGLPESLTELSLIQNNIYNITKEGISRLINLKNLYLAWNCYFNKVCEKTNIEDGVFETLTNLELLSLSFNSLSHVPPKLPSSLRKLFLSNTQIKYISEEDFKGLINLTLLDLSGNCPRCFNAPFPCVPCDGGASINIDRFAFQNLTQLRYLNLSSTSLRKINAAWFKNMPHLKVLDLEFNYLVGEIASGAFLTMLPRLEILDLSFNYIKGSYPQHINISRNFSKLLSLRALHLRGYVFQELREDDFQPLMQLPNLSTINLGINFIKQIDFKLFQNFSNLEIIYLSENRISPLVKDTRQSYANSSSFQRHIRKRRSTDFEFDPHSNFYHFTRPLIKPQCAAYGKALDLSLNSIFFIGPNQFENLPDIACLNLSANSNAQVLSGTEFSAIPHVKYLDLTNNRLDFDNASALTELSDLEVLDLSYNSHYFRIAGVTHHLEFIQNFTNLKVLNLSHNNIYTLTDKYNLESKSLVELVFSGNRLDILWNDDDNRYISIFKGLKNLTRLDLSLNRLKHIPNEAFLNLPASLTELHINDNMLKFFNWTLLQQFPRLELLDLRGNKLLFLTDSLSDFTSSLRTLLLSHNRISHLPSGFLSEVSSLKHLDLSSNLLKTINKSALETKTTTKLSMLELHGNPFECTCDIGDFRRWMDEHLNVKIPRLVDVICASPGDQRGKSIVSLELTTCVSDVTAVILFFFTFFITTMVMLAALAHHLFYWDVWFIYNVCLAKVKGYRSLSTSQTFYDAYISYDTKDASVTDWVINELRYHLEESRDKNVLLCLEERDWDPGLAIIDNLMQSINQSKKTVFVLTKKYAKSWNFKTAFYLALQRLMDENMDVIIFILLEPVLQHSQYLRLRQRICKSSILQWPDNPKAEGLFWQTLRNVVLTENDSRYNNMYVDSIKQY

| SMILES | IC50 (human TLR7) | IC50 (human TLR8) | IC50 (human TLR9) |
| --- | --- | --- | --- |
| Cc1c(-c2[nH]c3ccc(N4C[C@@H](C)N(C(=O)CCN(C)C)[C@H](C)C4)nc3c2C(C)C)cn2ncnc2c1C [Example 886] | 2.8 nM | 1.7 nM | 2.57 µM |
| Cc1c(-c2[nH]c3ccc(N4C[C@@H](C)N(C(=O)CCN5CCC5)C[C@@H]4C)nc3c2C(C)C)cn2ncnc2c1C [Example 892] | 0.62 nM | 1.4 nM | 3.29 µM |
| Cc1c(-c2[nH]c3ccc(N4C[C@@H](C)N(C(=O)CN5CC6(COC6)C5)C[C@@H]4C)nc3c2C(C)C)cn2ncnc2c1C [Example 896] | 0.69 nM | 0.37 nM | 8.44 µM |
| Cc1c(-c2[nH]c3ccc(N4CCN(C(=O)CN5CCCC5)[C@@H](C)C4)nc3c2C(C)C)cn2ncnc2c1C [Example 899] | 1 nM | 1.7 nM | 9.78 µM |
| Cc1c(-c2[nH]c3ccc(N4CCN(C(=O)CN5CC6(COC6)C5)[C@@H](C)C4)nc3c2C(C)C)cn2ncnc2c1C [Example 900] | 1.1 nM | 1.4 nM | 15.6 µM |
| Cc1c(-c2[nH]c3ccc(N4CCN(C(=O)CN5CC6(COC6)C5)C[C@@H]4C)nc3c2C(C)C)cn2ncnc2c1C [Example 901] | 0.72 nM | 0.15 nM | 13.3 µM |
| Cc1c(-c2[nH]c3ccc(N4CCN(C(=O)CN(C)C(C)(C)C)C[C@@H]4C)nc3c2C(C)C)cn2ncnc2c1C [Example 905] | 0.51 nM | 0.82 nM | 12 µM |
| CCN(C)CCC(=O)N1C[C@H](C)N(c2ccc3[nH]c(-c4cn5ncnc5c(C)c4C)c(C(C)C)c3n2)C[C@H]1C [Example 906] | 0.39 nM | 0.67 nM | 7.8 µM |
| Cc1c(-c2[nH]c3ccc(N4C[C@@H](C)N(C(=O)CCN5CCOCC5)C[C@@H]4C)nc3c2C(C)C)cn2ncnc2c1C [Example 907] | 0.76 nM | 0.45 nM | > 50 µM |
| Cc1c(-c2[nH]c3ccc(N4C[C@@H](C)N(C(=O)CCN5CC6(COC6)C5)C[C@@H]4C)nc3c2C(C)C)cn2ncnc2c1C [Example 908] | 0.89 nM | 0.26 nM | 6.46 µM |
| Cc1c(-c2[nH]c3ccc(N4C[C@@H](C)N(C(=O)CN(C(C)C)C(C)C)C[C@@H]4C)nc3c2C(C)C)cn2ncnc2c1C [Example 910] | 0.68 nM | 0.86 nM | 5.4 µM |
| Cc1c(-c2[nH]c3ccc(N4C[C@@H](C)N(C(=O)CN(C)C(C)(C)C)C[C@@H]4C)nc3c2C(C)C)cn2ncnc2c1C [Example 911] | 0.68 nM | 1.5 nM | 7.02 µM |
| Cc1c(-c2[nH]c3ccc(N4[C@@H]5CC[C@H]4CN(C(=O)CCN(C)C)C5)nc3c2C(C)C)cn2ncnc2c1C [Example 913] | 1 nM | 1.8 nM | 8.85 µM |
| Cc1c(-c2[nH]c3ccc(N4C[C@@H](C)N(C(=O)CCN(C)C(C)(C)C)C[C@@H]4C)nc3c2C(C)C)cn2ncnc2c1C [Example 914] | 0.73 nM | 0.94 nM | 6.05 µM |
| Cc1c(-c2[nH]c3ccc(N4CCN(C(=O)CN5CC(C)(C)C5)CC4)nc3c2C(C)C)cn2ncnc2c1C [Example 915] | 2.3 nM | 1 nM | 11.1 µM |

| SMILES | IC50 (human TLR7) | IC50 (human TLR8) | IC50 (human TLR9) |
| --- | --- | --- | --- |
| Cc1c(-c2[nH]c3ccc(N4CCN(C(=O)CN5CCC(F)(F)C5)CC4)nc3c2C(C)C)cn2ncnc2c1C [Example 919] | 23 nM | 1 nM | 13.9 µM |
| Cc1c(-c2[nH]c3ccc(N4[C@@H]5CC[C@H]4CN(C(=O)CN4CC6(COC6)C4)C5)nc3c2C(C)C)cn2ncnc2c1C [Example 920] | 2.6 nM | 5.9 nM | 12.1 µM |
| Cc1c(-c2[nH]c3ccc(N4[C@@H]5CC[C@H]4CN(C(=O)CN4CCCC4)C5)nc3c2C(C)C)cn2ncnc2c1C [Example 921] | 0.61 nM | 3.4 nM | 5.27 µM |
| CCN(C)CC(=O)N1C[C@H]2CC[C@@H](C1)N2c1ccc2[nH]c(-c3cn4ncnc4c(C)c3C)c(C(C)C)c2n1 [Example 922] | 0.55 nM | 2.1 nM | 9.37 µM |
| Cc1c(-c2[nH]c3ccc(N4[C@@H]5CC[C@H]4CN(C(=O)CN(C)C(C)C)C5)nc3c2C(C)C)cn2ncnc2c1C [Example 923] | 1.2 nM | 3.6 nM | 6.56 µM |
| Cc1c(-c2[nH]c3ccc(N4[C@@H]5CC[C@H]4CN(C(=O)CN(C)C(C)(C)C)C5)nc3c2C(C)C)cn2ncnc2c1C [Example 924] | 1.7 nM | 4.9 nM | 7.23 µM |
| Cc1c(-c2[nH]c3ccc(N4[C@@H]5CC[C@H]4CN(C(=O)CN(CCO)C(C)(C)C)C5)nc3c2C(C)C)cn2ncnc2c1C [Example 925] | 0.79 nM | 9.2 nM | 10.1 µM |
| Cc1c(-c2[nH]c3ccc(N4C[C@@H](C)N(C(=O)CN(C)C(C)(C)C)[C@H](C)C4)nc3c2C(C)C)cn2ncnc2c1C [Example 926] | 3.3 nM | 3 nM | 3.04 µM |
| CCN(C)CC(=O)N1[C@H](C)CN(c2ccc3[nH]c(-c4cn5ncnc5c(C)c4C)c(C(C)C)c3n2)C[C@H]1C [Example 927] | 2.9 nM | 3.7 nM | 4.36 µM |
| Cc1c(-c2[nH]c3ccc(N4C[C@@H](C)N(C(=O)CN5CCCC5)[C@H](C)C4)nc3c2C(C)C)cn2ncnc2c1C [Example 928] | 1.5 nM | 6.9 nM | 3.64 µM |
| Cc1c(-c2[nH]c3ccc(N4C[C@@H](C)N(C(=O)CN(CCO)C(C)(C)C)[C@H](C)C4)nc3c2C(C)C)cn2ncnc2c1C [Example 930] | 22 nM | 7.4 nM | 24.3 µM |
| Cc1c(-c2[nH]c3ccc(N4CCN(C(=O)CN5CC6(COC6)C5)C[C@H]4C)nc3c2C(C)C)cn2ncnc2c1C [Example 931] | 2.5 nM | 3.9 nM | 14.9 µM |
| CCN(C)CC(=O)N1CCN(c2ccc3[nH]c(-c4cn5ncnc5c(C)c4C)c(C(C)C)c3n2)[C@@H](C)C1 [Example 932] | 0.66 nM | 10 nM | 14.3 µM |
| Cc1c(-c2[nH]c3ccc(N4CCN(C(=O)CN(C)C(C)C)C[C@H]4C)nc3c2C(C)C)cn2ncnc2c1C [Example 933] | 0.63 nM | 18 nM | 18.4 µM |
| Cc1c(-c2[nH]c3ccc(N4CCN(C(=O)CN(C)C(C)(C)C)C[C@H]4C)nc3c2C(C)C)cn2ncnc2c1C [Example 934] | 0.86 nM | 8.6 nM | 9.75 µM |

Continued by falling IC50 (human TLR7), values first:

| IC50 (human TLR7) | IC50 (human TLR8) | IC50 (human TLR9) | SMILES |
| --- | --- | --- | --- |
| 7.4 nM | 2.3 nM | 12.5 µM | Cc1c(-c2[nH]c3ccc(N4CCN(C(=O)CN(C(C)C)C(C)C)CC4)nc3c2C(C)C)cn2ncnc2c1C [Example 883] |
| 3 nM | 4.1 nM | 35.2 µM | Cc1c(-c2[nH]c3ccc(N4CCN(C(=O)CN(C(C)C)C(C)C)C[C@@H]4C)nc3c2C(C)C)cn2ncnc2c1C [Example 903] |
| 2.6 nM | 3.9 nM | 5.09 µM | Cc1c(-c2[nH]c3ccc(N4C[C@@H](C)N(C(=O)CN5CC6(COC6)C5)[C@H](C)C4)nc3c2C(C)C)cn2ncnc2c1C [Example 929] |
| 2.1 nM | 3.2 nM | 17.3 µM | CCN(CC)CC(=O)N1CCN(c2ccc3[nH]c(-c4cn5ncnc5c(C)c4C)c(C(C)C)c3n2)C[C@@H]1C [Example 898] |
| 1.6 nM | 3.8 nM | 7.85 µM | Cc1c(-c2[nH]c3ccc(N4C[C@@H](C)N(C(=O)CN(C)C)[C@H](C)C4)nc3c2C(C)C)cn2ncnc2c1C [Example 885] |
| 1.1 nM | 1.4 nM | 15.8 µM | CCN(CC)CC(=O)N1CCN(c2ccc3[nH]c(-c4cn5ncnc5c(C)c4C)c(C(C)C)c3n2)[C@@H](C)C1 [Example 902] |
| 1 nM | 4.2 nM | 14.8 µM | Cc1c(-c2[nH]c3ccc(N4CCN(C(=O)CN(C)C(C)(C)C)[C@@H](C)C4)nc3c2C(C)C)cn2ncnc2c1C [Example 904] |
| 0.98 nM | 2.2 nM | 9.33 µM | CCN(CC(=O)N1C[C@H](C)N(c2ccc3[nH]c(-c4cn5ncnc5c(C)c4C)c(C(C)C)c3n2)C[C@H]1C)C(C)C [Example 912] |
| 0.9 nM | 0.17 nM | 6.5 µM | Cc1c(-c2[nH]c3ccc(N4C[C@@H](C)N[C@H](C)C4)nc3c2C(C)C)cn2ncnc2c1C [Example 884] |
| 0.86 nM | 1.5 nM | 12 µM | CCN(C)CC(=O)N1CCN(c2ccc3[nH]c(-c4cn5ncnc5c(C)c4C)c(C(C)C)c3n2)C[C@@H]1C [Example 897] |
| 0.74 nM | 1.1 nM | 7.93 µM | CCN(CC)CC(=O)N1C[C@H](C)N(c2ccc3[nH]c(-c4cn5ncnc5c(C)c4C)c(C(C)C)c3n2)C[C@H]1C [Example 895] |
| 0.54 nM | 0.91 nM | 6.71 µM | Cc1c(-c2[nH]c3ccc(N4C[C@@H](C)N(C(=O)CCN5CCC(F)C5)C[C@@H]4C)nc3c2C(C)C)cn2ncnc2c1C (stereo partly drawn) [Example 909] |
| 0.5 nM | 0.68 nM | 8.12 µM | Cc1c(-c2[nH]c3ccc(N4CCN(C(=O)CN(C)C)[C@@H](C)C4)nc3c2C(C)C)cn2ncnc2c1C [Example 887] |
| 0.37 nM | 0.89 nM | 10.8 µM | CCCN(C)CC(=O)N1C[C@H](C)N(c2ccc3[nH]c(-c4cn5ncnc5c(C)c4C)c(C(C)C)c3n2)C[C@H]1C [Example 894] |
| 0.34 nM | 0.74 nM | 7.44 µM | CCN(C)CC(=O)N1C[C@H](C)N(c2ccc3[nH]c(-c4cn5ncnc5c(C)c4C)c(C(C)C)c3n2)C[C@H]1C [Example 893] |
